Laboratory results as given in patent publication US20130112197A1, “OPERATING METHOD FOR AN AEROSOL DELIVERY DEVICE AND AEROSOL DELIVERY DEVICE” (PARI Pharma GmbH, priority 2010, published 2013).

Assay: clinical trial: nasal and paranasal aerosol deposition by gamma camera imaging
Format: in vivo, human
Description: The method of the clinical trial was: Sinus air ventilation, nasal and paranasal aerosol deposition as well as nasal clearance of aerosols delivered by different pulsating airflows, such as a combined mode in comparison to intermittent mode. This was studied in 12 healthy volunteers using gamma camera imaging with 81 mKr gas and 99 mTc-DTPA aerosol. Masking techniques were used to visualize and quantify nasal and sinus aerosol deposition and retention.

total sinus deposition in % of the deposited activity (12 healthy volunteers, maxillary and sphenoid sinuses, pulsating airflows): up to 24%
total sinus deposition in % of the deposited activity (combined mode, proband 1, post FESS volunteer): 14%
total sinus deposition in % of the deposited activity (combined mode, proband 2, normal volunteer): 6%
total sinus deposition in % of the deposited activity (intermittent mode, proband 1, post FESS volunteer): 24%
total sinus deposition in % of the deposited activity (intermittent mode, proband 2, normal volunteer): 0%
Compound: O=C([O-])CN(CCN(CC(=O)[O-])CC(=O)[O-])CCN(CC(=O)[O-])CC(=O)[O-].[99Tc+4] [99 mTc-DTPA]
